Tests used:
Conditions in all cases: 72 h
HepG2 [1] = assay: cell viability relative to DMSO; higher = less toxic
Vero E6 [2] = assay: as above
Caco-2 [3] = assay: as above
U2OS [4] = assay: as above
HepG2 [5] = assay: drug sensitivity score (DSS) for viability; higher = more toxic; extreme values may be limits of the assay
Vero E6 [6] = assay: as above
Caco-2 [7] = assay: as above
U2OS [8] = assay: as above
HepG2 [9] = assay: relative viability EC50 (midpoint between 100% and the lowest measured viability); higher = less toxic
Vero E6 [10] = assay: as above
Caco-2 [11] = assay: as above
U2OS [12] = assay: as above
Calu-3 [13] = assay: cell viability relative to DMSO; higher = less toxic
Calu-3 [14] = assay: drug sensitivity score (DSS) for viability; higher = more toxic; extreme values may be limits of the assay
Calu-3 [15] = assay: relative viability EC50 (midpoint between 100% and the lowest measured viability); higher = less toxic

| SMILES | cell viability (HepG2 [1]; 1 nM) [%] | cell viability (HepG2 [1]; 10 nM) [%] | cell viability (HepG2 [1]; 100 nM) [%] | cell viability (HepG2 [1]; 1000 nM) [%] | cell viability (HepG2 [1]; 10000 nM) [%] | cell viability (Vero E6 [2]; 1 nM) [%] | cell viability (Vero E6 [2]; 10 nM) [%] | cell viability (Vero E6 [2]; 100 nM) [%] | cell viability (Vero E6 [2]; 1000 nM) [%] | cell viability (Vero E6 [2]; 10000 nM) [%] | cell viability (Caco-2 [3]; 1 nM) [%] | cell viability (Caco-2 [3]; 10 nM) [%] | cell viability (Caco-2 [3]; 100 nM) [%] | cell viability (Caco-2 [3]; 1000 nM) [%] | cell viability (Caco-2 [3]; 10000 nM) [%] | cell viability (U2OS [4]; 1 nM) [%] | cell viability (U2OS [4]; 10 nM) [%] | cell viability (U2OS [4]; 100 nM) [%] | cell viability (U2OS [4]; 1000 nM) [%] | cell viability (U2OS [4]; 10000 nM) [%] | drug sensitivity score (HepG2 [5]) | drug sensitivity score (Vero E6 [6]) | drug sensitivity score (Caco-2 [7]) | drug sensitivity score (U2OS [8]) | relative viability EC50 (HepG2 [9]) [µM] | relative viability EC50 (Vero E6 [10]) [µM] | relative viability EC50 (Caco-2 [11]) [µM] | relative viability EC50 (U2OS [12]) [µM] | cell viability (Calu-3 [13]; 1 nM) [%] | cell viability (Calu-3 [13]; 10 nM) [%] | cell viability (Calu-3 [13]; 100 nM) [%] | cell viability (Calu-3 [13]; 1000 nM) [%] | cell viability (Calu-3 [13]; 10000 nM) [%] | drug sensitivity score (Calu-3 [14]) | relative viability EC50 (Calu-3 [15]) [µM] |
| --- | --- | --- | --- | --- | --- | --- | --- | --- | --- | --- | --- | --- | --- | --- | --- | --- | --- | --- | --- | --- | --- | --- | --- | --- | --- | --- | --- | --- | --- | --- | --- | --- | --- | --- | --- |
| CC(C(=O)O)c1ccc2c(c1)CC(=O)c1ccccc1S2 (stereo not drawn) [zaltoprofen] | 95.5 | 103 | 101 | 110 | 111 | 93.8 | 101 | 90.9 | 100 | 104 | 99.7 | 93.8 | 98.4 | 106 | 101 | 99.9 | 97.3 | 99.6 | 98.1 | 101 | 0 | 0 | 0 | 0 | > 10 | > 10 | > 10 | > 10 |  |  |  |  |  |  |  |
| CCCCCCCCCCCCCCOC(=O)c1cccnc1 [myristyl-nicotinate] | 98.7 | 93.5 | 105 | 99.4 | 102 | 96.6 | 98.2 | 97.6 | 102 | 101 | 98.2 | 103 | 97.7 | 97.8 | 103 | 101 | 96.7 | 101 | 98.4 | 102 | 0 | 0 | 0 | 0 | > 10 | > 10 | > 10 | > 10 |  |  |  |  |  |  |  |
| NCCc1c[nH]c2ccc(O)cc12 [serotonin] | 89.2 | 91.4 | 94.3 | 88.4 | 107 | 107 | 102 | 103 | 98.9 | 101 | 96.8 | 89.1 | 102 | 90.2 | 89.5 | 91.3 | 95.8 | 94.3 | 97.3 | 92.9 | 0 | 0 | 0 | 0 | > 10 | > 10 | > 10 | > 10 |  |  |  |  |  |  |  |
| CN(C)CCN(C)CCc1ccc(Cl)c(Cl)c1 [BD-1047] | 98.3 | 102 | 96.2 | 85.5 | 89.9 | 94.5 | 104 | 96.8 | 93.6 | 97.4 | 95.4 | 102 | 98.3 | 94.6 | 91.8 | 97.2 | 102 | 93.4 | 97.5 | 94.7 | 1.6 | 0 | 0 | 0 | > 10 | > 10 | > 10 | > 10 |  |  |  |  |  |  |  |
| CCNC(=O)CC[C@H](N)C(=O)O [L-theanine] | 95.8 | 89.8 | 95.5 | 89.8 | 99.4 | 95.8 | 99 | 105 | 104 | 88 | 98.2 | 95 | 98.7 | 93.1 | 105 | 99.8 | 103 | 95.8 | 101 | 102 | 0 | 0 | 0 | 0 | > 10 | > 10 | > 10 | > 10 |  |  |  |  |  |  |  |
| Cc1cccn2c(=O)c(-c3nnn[nH]3)cnc12 [pemirolast] | 102 | 98.2 | 101 | 96.2 | 92.7 | 89.7 | 88.7 | 88.5 | 96.4 | 93.8 | 95.1 | 98.6 | 92.6 | 96.1 | 97.6 | 98.4 | 95.1 | 95.4 | 91.5 | 95.6 | 0 | 0 | 0 | 0 | > 10 | > 10 | > 10 | > 10 |  |  |  |  |  |  |  |
| CCOC(=O)[C@H](Cc1ccccc1)NC(=O)c1cc(Cl)c(OCCN2CCN(C)CC2)c(Cl)c1O [JTE-607] | 107 | 109 | 98.6 | 56.8 | 41.9 | 103 | 99.1 | 104 | 101 | 103 | 90.9 | 95.5 | 99.8 | 103 | 76.1 | 99.9 | 98.8 | 95.7 | 102 | 80 | 8.4 | 0 | 0.7 | 0.5 | 0.606 | > 10 | > 10 | > 10 |  |  |  |  |  |  |  |
| COc1ccc(-n2c(SCCCN3C(=O)c4cccc5cccc(c45)C3=O)nnc2-c2ccncc2)cc1 [WIKI4] | 96.3 | 97.6 | 93.4 | 107 | 100 | 97.8 | 101 | 97.9 | 91.8 | 66.8 | 90.5 | 109 | 96 | 87 | 95.6 | 100 | 109 | 98.6 | 95.7 | 87.3 | 0 | 2.8 | 1.1 | 0.2 | > 10 |  | > 10 | > 10 | 96.2 | 103 | 92.8 | 75 | 71.3 | 4.7 |  |
| Cc1cccc(-c2n[nH]cc2-c2ccc(F)c(-c3cnn(CCO)c3)c2)n1 | 103 | 94.1 | 95.2 | 106 | 109 | 96.1 | 101 | 98 | 93.4 | 94.5 | 93.3 | 91.9 | 99.7 | 92.5 | 91.5 | 103 | 98.8 | 95.7 | 89.3 | 92.6 | 0 | 0 | 0 | 0.1 | > 10 | > 10 | > 10 | > 10 |  |  |  |  |  |  |  |
| Cc1cc(C(=O)O)sc1C(N)C(=O)O (stereo not drawn) [3-MATIDA] | 96.4 | 94.8 | 83.2 | 96.3 | 91.8 | 92.6 | 99.2 | 95.2 | 93.5 | 98 | 96.9 | 105 | 97.3 | 99.4 | 96.9 | 103 | 110 | 96.8 | 102 | 97.5 | 0 | 0 | 0 | 0 | > 10 | > 10 | > 10 | > 10 |  |  |  |  |  |  |  |
| COc1ccc(Cn2ccc3ccc(C(=O)NO)cc32)cc1 | 105 | 102 | 97.7 | 94.2 | 56.4 | 96.7 | 100 | 104 | 94.8 | 51.5 | 98 | 97 | 100 | 101 | 70.1 | 97.9 | 98.2 | 97.5 | 97 | 72.4 | 3.2 | 3.4 | 1.2 | 1.6 |  |  |  |  | 103 | 95.2 | 96.8 | 100 | 86.7 | 0.1 | > 10 |
| CNc1nc(-c2ccc3c(N)n[nH]c3c2)cc(N2C[C@@H](C(=O)NC3CCCCC3)CC[C@H]2C)n1 | 103 | 108 | 101 | 72.4 | 53.9 | 97.1 | 94.9 | 98.6 | 91 | 71.9 | 106 | 106 | 102 | 79 | 58 | 93.7 | 101 | 95.9 | 91 | 62.3 | 5.7 | 2.3 | 4.8 | 3.2 |  |  |  |  | 93.5 | 93.3 | 87.5 | 77.3 | 48.1 | 5.9 | 0.737 |
| COc1cc2c(c(OC)c1OC)-c1ccc(OC)c(=O)cc1[C@@H](NC(C)=O)CC2 [colchicine] | 104 | 91.2 | 38 | 34.8 | 39.7 | 101 | 101 | 96.9 | 31.1 | 28.5 | 97.2 | 103 | 45.8 | 46.1 | 41.1 | 104 | 103 | 25.3 | 20 | 19.2 | 21.2 | 13.2 | 17.5 | 23.9 | 0.0241 | 0.308 | 0.0419 | 0.0407 |  |  |  |  |  |  |  |
| O=[N+]([O-])c1cnc(Sc2nnc(O)n2-c2ccc3c(c2)OCCO3)s1 [BI-78D3] | 103 | 102 | 95.8 | 70.3 | 1.4 | 101 | 95.6 | 99.3 | 94.7 | 0.4 | 99.2 | 102 | 94 | 88.3 | 7 | 98.9 | 98 | 94.5 | 97.9 | 0.1 | 9.8 | 6.3 | 7.1 | 5.8 | 1.4 | 2.75 | 2.14 | 3.02 |  |  |  |  |  |  |  |
